Patent US20090136968A1, “Novel in vitro methods for studying receptors recognizing volatile compounds” (Chemcom S. A., priority 2005, published 2009)

Experiments:
Assay type in all cases: cell-based
[1] = molecular target: T1, mOR-I7 (Mus musculus, UniProt Q9QWU6); assay: cAMP level immunoassay (TROPIX) in the novel assay on HEK 293T overexpressing mOR-I7; details: BSA solution incubated with 16 μl of 1 M odorant; 20 minutes incubation
T1 construct: expressed in transfected cells; host or cells: HEK 293T
T1 sequence (Q9QWU6 1-327): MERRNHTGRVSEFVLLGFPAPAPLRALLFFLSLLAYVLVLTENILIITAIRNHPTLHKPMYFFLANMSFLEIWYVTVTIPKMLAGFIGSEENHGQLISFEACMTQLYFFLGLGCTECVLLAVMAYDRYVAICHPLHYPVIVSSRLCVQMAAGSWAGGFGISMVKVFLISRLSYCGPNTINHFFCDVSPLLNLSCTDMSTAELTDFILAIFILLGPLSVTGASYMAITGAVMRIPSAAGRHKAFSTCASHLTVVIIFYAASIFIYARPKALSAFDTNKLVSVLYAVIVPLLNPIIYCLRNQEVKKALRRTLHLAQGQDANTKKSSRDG
Method: Similarly to the first step of the fluorescence-based functional assay described above, BP solutions including SA, OBP and/or olfactory mucus (see concentration in the text) were incubated in the presence of odorant in a sealed flask for 16 hours at 4° C. (FIG. 3A). Such odorant-BP complexes were then applied to cultured-cell for 20 minutes at 37° C. cAMP level was then measured using the Tropix kit according to the manufacturer procedures (Applied Biosystem).
As depicted in FIG. 1, binding of odorant molecule to olfactory receptor triggers a cascade of molecular events. In the most commonly accepted pathway, the first second messenger is cAMP synthesized by adenylate cyclase type III. Therefore, a mean to test olfactory receptor activation is to assess variation of cellular cAMP pool after olfactory receptor activation. It is noteworthy that such assay could be performed in parallel to calcium flux assay described above to validate hits obtained during a screening.
Specificity of the novel cell based olfactory functional assay according to the present invention was tested following mOR-I7 activation after injection of these three odorants and two non related odorant, vanilline and piperonyl isobutyrate. Olfactory receptor activation was detected by cellular cAMP pool immunoassay. A solution of BSA was incubated overnight at 4° C.
As discussed above (FIG. 1), activation of olfactory receptor can also be followed through cAMP synthesis. […] Results are expressed as percent of response observed after incubation with 100 μM forskolin, an activator of adenylate cyclases. […] Scheme of the odorant molecules are depicted in FIG. 7E.

[2] = tested on: HEK 293T wt; assay: CCBSA microplate calcium flux on HEK 293T wild type cells (specificity control)
Method: A solution of BP including SA, OBP and/or olfactory mucus (see concentration in the text) was incubated in the presence of odorant in a sealed flask for 16 hours at 4° C. (FIG. 3A). Such incubated-BP solution was then used as tested complex on olfactory receptor-expressing cells. Prior to incubation with such complex, cells were incubated for 1 hour with 4 μM Fluo4-AM (Molecular Probe) in the presence of 1 mM probenecid, and then rinsed twice with Fluo4-AM free HBSS buffer. After injection of odorant-BP complex on OR expressing cells, calcium flux was followed by measuring fluorescence at 520 nm ([…]) on FDSS, a plate reader from Hamamatsu Photonics K.K. (Japan) at 25° C.
For this novel assay, mOR-I7 activation was assessed by octanal. A constant volume of olfactory mucus was incubated in the presence of increasing amount of octanal ranging from 0 to 16 μl of a solution of 1M octanal. […] Calcium flux was followed with Fluo4 on FDSS, a plate reader from Hamamatsu Photonics K.K. (Japan).
However this fraction 4 contained two major proteins, bOBP and BSA. […] Calcium-flux was followed on a plate reader (Hamamatsu Photonics K.K., Japan) with fluo4 as fluorescent dye (FIG. 6 A to F). […] Such phenomenon is usually observed in such fluorescence assay when increasing ligand concentrations are injected.

[3] = molecular target: T1, mOR-I7; assay: CCBSA single cell calcium imaging (Fluo4) on HEK 293T overexpressing mOR-I7; details: bovine olfactory mucus incubated with 16 μl of 1M octanal, 16 hours 4° C.; 20 cells
Method: FIG. 3: Development of a novel olfactory functional assay. (A) Scheme of the novel assay according to the present invention, CCBSA. See details in the text. (B) Application of CCBSA on a microplate format fluorescent cell-based assay. Increasing volume of octanal were incubated in CCBSA, and applied on HEK 293T cell line overexpressing or not mOR-I7. Calcium flux was followed with fluo4 as calcium tracer. (C) Application of CCBSA on single cell calcium imaging assay. Octanal was incubated in CCBSA and applied on HEK 293T overexpressing mOR-I7. Upper panel depicts kinetics of calcium flux followed with fluo4 as calcium tracer. Octanal-incubated bovine olfactory mucus was applied at 50 s and ATP as positive control was applied at 310 s. Forty X objective was used for this experiment. Middle panel show kinetics of 20 individual cells taken off the field represented in the upper panel. Finally, a representation of the average of the 20 traces is given in the lower panel.
To further validate this assay, single cell calcium imaging assays following the same approach were performed (FIG. 3C). Bovine olfactory mucus was incubated in the presence of 16 μl of a 1M octanal solution for 16 hours at 4° C. […]
This novel assay allows thus an efficient solubilization of odorant and greatly improves the efficacy of the molecule. […] Such disproportion has never been detected in a conventional assay. […]

CCCCCCCC=O [octanal]
mOR-I7 activation by cellular cAMP pool [1]: mOR-I7 ligands
cell response on wt cells ([2]; bovine olfactory mucus incubated with octanal): no cell response
fluorescence in HEK 293T wt ([2]; fraction 4 or BSA solution (5×10^−6 M) incubated with 1M octanal): no fluorescence appeared
activation of cells overexpressing mOR-I7 (single cell fluorescence kinetics) [3]: activated
